For ten compounds, RatioLC50 and LC50 results are on record in ChEMBL document CHEMBL3045857, “Monitoring of spirodiclofen susceptibility in field populations of European red mites, Panonychus ulmi (Koch) (Acari: Tetranychidae), and the cross-resistance pattern of a laboratory-selected strain” (2011).

Each structure is given as a SMILES string. In brackets after ≈: the same amount, converted by molar mass.

Type in all cases: functional
For assay [1], the system named is Panonychus ulmi. Description: Resistance ratio, LC50 for adult Panonychus ulmi HS to LC50 for adult Panonychus ulmi PSR TK.
Assay [2] deals with Panonychus ulmi. The assay is described as follows: Insecticidal activity against Panonychus ulmi HS in plum tree leaf assessed as mortality at adult stage compound treated by spray application measured after 7 to 8 days treatment.
Assay [3] concerns Panonychus ulmi. Description: Insecticidal activity against Panonychus ulmi PSR-TK in plum tree leaf assessed as mortality at adult stage compound treated by spray application measured after 7 to 8 days treatment.
Assay [4] deals with Panonychus ulmi. Description: Insecticidal activity against Panonychus ulmi HS in plum tree leaf assessed as egg mortality compound treated by spray application measured after 7 to 8 days treatment.
Assay [5] concerns Panonychus ulmi. The assay is described as follows: Resistance ratio, LC50 for egg Panonychus ulmi Ge14/09 to LC50 for egg Panonychus ulmi HS.
The subject of assay [6] is Panonychus ulmi. Description: Insecticidal activity against Panonychus ulmi Ge15/09 in plum tree leaf assessed as larvae mortality compound treated by spray application measured after 7 to 8 days treatment.
For assay [7], the system named is Panonychus ulmi. Description: Insecticidal activity against Panonychus ulmi PSR-TK in plum tree leaf assessed as mortality at larvae stage compound treated by spray application measured after 7 to 8 days treatment.
The subject of assay [8] is Panonychus ulmi. Description: Resistance ratio, LC50 for egg Panonychus ulmi Ge13/09 to LC50 for egg Panonychus ulmi HS.
For assay [9], the system named is Panonychus ulmi. Description: Resistance ratio, LC50 for larvae Panonychus ulmi HS to LC50 for larvae Panonychus ulmi PSR TK.
The test system of assay [10] is Panonychus ulmi. The assay is described as follows: Insecticidal activity against Panonychus ulmi Ge14/09 in plum tree leaf assessed as egg mortality compound treated by spray application measured after 7 to 8 days treatment.
In assay [11] the test system is Panonychus ulmi. The assay is described as follows: Insecticidal activity against Panonychus ulmi HS in plum tree leaf assessed as larvae mortality compound treated by spray application measured after 7 to 8 days treatment.
The test system of assay [12] is Panonychus ulmi. The assay is described as follows: Resistance ratio, LC50 for larvae Panonychus ulmi Ge14/09 to LC50 for larvae Panonychus ulmi HS.
Assay [13] deals with Panonychus ulmi. The assay is described as follows: Insecticidal activity against Panonychus ulmi Ge16/09 in plum tree leaf assessed as larvae mortality compound treated by spray application measured after 7 to 8 days treatment.
The subject of assay [14] is Panonychus ulmi. Description: Resistance ratio, LC50 for egg Panonychus ulmi HS to LC50 for egg Panonychus ulmi PSR TK.
The test system of assay [15] is Panonychus ulmi. Description: Resistance ratio, LC50 for egg Panonychus ulmi Ge15/09 to LC50 for egg Panonychus ulmi HS.
Assay [16] has as its system Panonychus ulmi. Description: Insecticidal activity against Panonychus ulmi Ge14/09 in plum tree leaf assessed as larvae mortality compound treated by spray application measured after 7 to 8 days treatment.
The test system of assay [17] is Panonychus ulmi. Description: Insecticidal activity against Panonychus ulmi Ge16/09 in plum tree leaf assessed as egg mortality compound treated by spray application measured after 7 to 8 days treatment.
Assay [18] has as its system Panonychus ulmi. The assay is described as follows: Insecticidal activity against Panonychus ulmi Ge13/09 in plum tree leaf assessed as larvae mortality compound treated by spray application measured after 7 to 8 days treatment.
The test system of assay [19] is Panonychus ulmi. The assay is described as follows: Resistance ratio, LC50 for larvae Panonychus ulmi Ge13/09 to LC50 for larvae Panonychus ulmi HS.
In assay [20] the test system is Panonychus ulmi. Description: Insecticidal activity against Panonychus ulmi Ge15/09 in plum tree leaf assessed as egg mortality compound treated by spray application measured after 7 to 8 days treatment.
In assay [21] the test system is Panonychus ulmi. The assay is described as follows: Resistance ratio, LC50 for larvae Panonychus ulmi Ge15/09 to LC50 for larvae Panonychus ulmi HS.
In assay [22] the test system is Panonychus ulmi. The assay is described as follows: Resistance ratio, LC50 for egg Panonychus ulmi Ge16/09 to LC50 for egg Panonychus ulmi HS.
The test system of assay [23] is Panonychus ulmi. Description: Resistance ratio, LC50 for larvae Panonychus ulmi Ge16/09 to LC50 for larvae Panonychus ulmi HS.
For assay [24], the system named is Panonychus ulmi. The assay is described as follows: Insecticidal activity against Panonychus ulmi PSR-TK in plum tree leaf assessed as mortality at egg stage compound treated by spray application measured after 7 to 8 days treatment.
Assay [25] has as its system Panonychus ulmi. Description: Insecticidal activity against Panonychus ulmi Ge13/09 in plum tree leaf assessed as egg mortality compound treated by spray application measured after 7 to 8 days treatment.
The test system of assay [26] is Panonychus ulmi. The assay is described as follows: Resistance ratio, LC50 for adult Panonychus ulmi HS to LC50 for adult Panonychus ulmi GE 16/09.

As a reminder, the LC50 is the concentration that kills 50% of the test population. For the compound `CCCCCCCCCCCCC1=C(OC(C)=O)C(=O)c2ccccc2C1=O` [ACEQUINOCYL], in the assay with Panonychus ulmi [1], the RatioLC50 was 3. The LC50 was 2.75 µg/mL (≈ 7.15 µM) in the assay with Panonychus ulmi [2] and 1.3 µg/mL (≈ 3.38 µM) with Panonychus ulmi [3].

For the compound `CCC(C)(C)C(=O)OC1=C(c2ccc(Cl)cc2Cl)C(=O)OC12CCCCC2` [SPIRODICLOFEN], the 50% lethal concentration (LC50) was 0.52 µg/mL (≈ 1.26 µM) with Panonychus ulmi [4]; 27.6 µg/mL (≈ 67.1 µM) in the assay with Panonychus ulmi [6]; > 10000 µg/mL in the assay with Panonychus ulmi [7]; 1.53 µg/mL (≈ 3.72 µM) in the assay with Panonychus ulmi [10]; 1.39 µg/mL (≈ 3.38 µM) with Panonychus ulmi [11]; 59.6 µg/mL (≈ 145 µM) in the assay on Panonychus ulmi [13]. In addition, the LC50 in the assay with Panonychus ulmi [16] was 33 µg/mL (≈ 80.2 µM); in the assay with Panonychus ulmi [17], 0.66 µg/mL (≈ 1.6 µM); in the assay on Panonychus ulmi [18], 12.1 µg/mL (≈ 29.4 µM); with Panonychus ulmi [20] it was 0.96 µg/mL (≈ 2.33 µM); in the assay on Panonychus ulmi [24] it was > 10000 µg/mL; in the assay with Panonychus ulmi [25], 0.59 µg/mL (≈ 1.43 µM). The RatioLC50 in the assay with Panonychus ulmi [5] is given as 2.9; in the assay with Panonychus ulmi [8], 1.1; with Panonychus ulmi [9], >7000; in the assay with Panonychus ulmi [12], 33; in the assay on Panonychus ulmi [14] it was 56; in the assay with Panonychus ulmi [15] it was 1.8. In addition, the RatioLC50 with Panonychus ulmi [19] was found to be 12; with Panonychus ulmi [21], 27; in the assay on Panonychus ulmi [22] it was 1.2; with Panonychus ulmi [23], 59.

Consider `CCc1nn(C)c(C(=O)NCc2ccc(C(C)(C)C)cc2)c1Cl` [TEBUFENPYRAD], for which, in the assay on Panonychus ulmi [1], the RatioLC50 came out at 30.3. The results for the median lethal concentration (LC50) in the assay with Panonychus ulmi [2] and with Panonychus ulmi [3] were 0.37 µg/mL (≈ 1.11 µM) and 11.2 µg/mL (≈ 33.5 µM), respectively.

For the compound `Clc1ccccc1-c1nnc(-c2ccccc2Cl)nn1` [CLOFENTEZINE], the 50% lethal concentration (LC50) in the assay with Panonychus ulmi [4] is 61.3 µg/mL (≈ 202 µM); with Panonychus ulmi [7] it was > 10000 µg/mL; in the assay with Panonychus ulmi [11] it was 5.53 µg/mL (≈ 18.2 µM); in the assay on Panonychus ulmi [24] it was > 10000 µg/mL. The results for the RatioLC50 in the assay with Panonychus ulmi [9], in the assay on Panonychus ulmi [14] and in the assay with Panonychus ulmi [26] were >1800, >160 and >3900, respectively.

As for `C[C@@H]1[C@@H](c2ccc(Cl)cc2)SC(=O)N1C(=O)NC1CCCCC1` [HEXYTHIAZOX], the median lethal concentration (LC50) was 5.99 µg/mL (≈ 17 µM) in the assay with Panonychus ulmi [4], 4.05 µg/mL (≈ 11.5 µM) in the assay on Panonychus ulmi [7], 0.43 µg/mL (≈ 1.22 µM) in the assay on Panonychus ulmi [11] and 4.32 µg/mL (≈ 12.2 µM) in the assay on Panonychus ulmi [24]. Moreover, the RatioLC50 is given as >20000 in the assay with Panonychus ulmi [9], >1600 in the assay with Panonychus ulmi [14] and >20000 with Panonychus ulmi [26].

Turning to `Cc1cc(C)c(C2=C(OC(=O)CC(C)(C)C)C3(CCCC3)OC2=O)c(C)c1` [SPIROMESIFEN], the LC50 in the assay on Panonychus ulmi [4] stood at 1.07 µg/mL (≈ 2.89 µM); in the assay with Panonychus ulmi [7], 3.73 µg/mL (≈ 10.1 µM); in the assay on Panonychus ulmi [11], 0.13 µg/mL (≈ 0.351 µM); in the assay on Panonychus ulmi [24], 0.36 µg/mL (≈ 0.972 µM). Moreover, the RatioLC50 is on record as 30.4 in the assay with Panonychus ulmi [9] and 4 in the assay on Panonychus ulmi [14].

`CCOC(=O)OC1=C(c2cc(C)ccc2C)C(=O)N[C@]12CC[C@@H](OC)CC2` [SPIROTETRAMAT]: the LC50 in the assay on Panonychus ulmi [7] came out at 538 µg/mL (≈ 1440 µM); in the assay on Panonychus ulmi [11], 1.09 µg/mL (≈ 2.92 µM). For the same compound, the RatioLC50 in the assay with Panonychus ulmi [9] is 3.

`Cc1nn(C)c(/C(OC(=O)C(C)(C)C)=C(\C#N)c2ccc(C(C)(C)C)cc2)c1C` [CYENOPYRAFEN]: the RatioLC50 in the assay on Panonychus ulmi [1] came out at 23.5. Besides, the LC50 in the assay with Panonychus ulmi [2] was 0.3 µg/mL (≈ 0.762 µM); in the assay with Panonychus ulmi [3] it was 7.13 µg/mL (≈ 18.1 µM).

As for `CCOc1cc(C(C)(C)C)ccc1C1COC(c2c(F)cccc2F)=N1` (stereo not given) [ETOXAZOLE], the values for the LC50 with Panonychus ulmi [7] and in the assay on Panonychus ulmi [11] were > 10000 µg/mL and 0.15 µg/mL (≈ 0.417 µM), respectively. Also, the RatioLC50 in the assay with Panonychus ulmi [9] was found to be 10.

On to `COc1ccc(-c2ccccc2)cc1NNC(=O)OC(C)C` [BIFENAZATE], for which the RatioLC50 in the assay on Panonychus ulmi [1] turned out to be 1. Further, the LC50 in the assay on Panonychus ulmi [2] was 1.42 µg/mL (≈ 4.73 µM); in the assay with Panonychus ulmi [3] it was 1.3 µg/mL (≈ 4.33 µM).
